{
  "source": "patent US9821024B2",
  "about": "“Immunomodulatory compositions” (Sigmoid Pharma Limited, priority 2010, dated 2017)",
  "test_system": "NFκB",
  "conditions": "HeLa cells; FIG. 29",
  "data": [
    {"smiles": "NNc1nncc2ccccc12", "note": "[Hydralazine]", "values": [
      {"measurement": "Concentration of maximal NFκB activation", "result": 10, "unit": "µg/mL"}
    ]}
  ]
}
